Experimental data: patent US9175003B2, “Substituted azoanthracene derivatives and intermediates for preparation thereof” (TransTech Pharma, LLC, priority 2009, dated 2015)

Target: human GLP-1 receptor (Homo sapiens (Human), UniProt P43220)
Conditions: read-out: Mean EC50; cAMP, HTRF detection, 30 min at 37° C., HEK-293 cells expressing cloned human GLP-1 receptor

human GLP-1 receptor, sequence (P43220 24-463): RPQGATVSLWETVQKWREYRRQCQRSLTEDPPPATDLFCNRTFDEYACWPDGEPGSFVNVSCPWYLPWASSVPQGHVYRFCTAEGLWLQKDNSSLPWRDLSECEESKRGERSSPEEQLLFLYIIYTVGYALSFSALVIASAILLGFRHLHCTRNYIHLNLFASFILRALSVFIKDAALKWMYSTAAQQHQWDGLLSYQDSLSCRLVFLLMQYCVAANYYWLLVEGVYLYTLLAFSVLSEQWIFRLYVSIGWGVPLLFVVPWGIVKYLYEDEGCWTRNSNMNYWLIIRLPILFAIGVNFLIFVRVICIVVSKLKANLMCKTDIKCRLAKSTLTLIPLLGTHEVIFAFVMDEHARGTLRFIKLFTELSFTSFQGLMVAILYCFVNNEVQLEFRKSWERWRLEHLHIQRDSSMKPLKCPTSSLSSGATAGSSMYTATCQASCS

**Q.** For `Cc1cccc(NC(=O)N2Cc3cc4c(cc3C[C@H]2C(=O)N[C@@H](Cc2ccc(Oc3ccnc(C)c3C)cc2)C(=O)O)OC[C@H](c2ccc(OCc3ccc(Cl)c(Cl)c3)cc2)O4)c1` [Example 345, (S)-2-({(3S,8S)-3-[4-(3,4-Dichloro-benzyloxy)-phenyl]-7-m-tolylcarbamoyl-2,3,6,7,8,9-hexahydro-[1,4]dioxino[2,3-g]isoquinoline-8-carbonyl}-amino)-3-[4-(2,3-dimethyl-pyridin-4-yloxy)-phenyl]-propionic acid], which EC50 is on record?
**A.** 255 nM

**Q.** With `Cc1nccc(Oc2ccc(C[C@H](NC(=O)[C@@H]3Cc4cc5c(cc4CN3C(=O)NC3CCC3)O[C@@H](c3ccc(OCc4ccc(Cl)c(Cl)c4)cc3)CO5)C(=O)O)cc2)c1C` [Example 347, (S)-2-({(3S,8S)-7-Cyclobutylcarbamoyl-3-[4-(3,4-dichloro-benzyloxy)-phenyl]-2,3,6,7,8,9-hexahydro-[1,4]dioxino[2,3-g]isoquinoline-8-carbonyl}-amino)-3-[4-(2,3-dimethyl-pyridin-4-yloxy)-phenyl]-propionic acid] as the compound, how does the EC50 read?
**A.** 315 nM

**Q.** `Cc1nccc(Oc2ccc(C[C@H](NC(=O)[C@@H]3Cc4cc5c(cc4CN3C(=O)NC(C)(C)c3ccccc3)O[C@@H](c3ccc(OCc4ccc(Cl)c(Cl)c4)cc3)CO5)C(=O)O)cc2)c1C` [Example 348, (S)-2-{[(3S,8S)-3-[4-(3,4-Dichloro-benzyloxy)-phenyl]-7-(1-methyl-1-phenyl-ethylcarbamoyl)-2,3,6,7,8,9-hexahydro-[1,4]dioxino[2,3-g]isoquinoline-8-carbonyl]-amino}-3-[4-(2,3-dimethyl-pyridin-4-yloxy)-phenyl]-propionic acid] was tested. Which EC50 did it give?
**A.** 262 nM

**Q.** For `CCC(C)(C)NC(=O)N1Cc2cc3c(cc2C[C@H]1C(=O)N[C@@H](Cc1ccc(Oc2ccnc(C)c2C)cc1)C(=O)O)OC[C@H](c1ccc(OCc2ccc(Cl)c(Cl)c2)cc1)O3` [Example 350, (S)-2-{[(3S,8S)-3-[4-(3,4-Dichloro-benzyloxy)-phenyl]-7-(1,1-dimethyl-propylcarbamoyl)-2,3,6,7,8,9-hexahydro-[1,4]dioxino[2,3-g]isoquinoline-8-carbonyl]-amino}-3-[4-(2,3-dimethyl-pyridin-4-yloxy)-phenyl]-propionic acid], which EC50 is on record?
**A.** 212 nM

**Q.** Which EC50 does the source give for `Cc1nccc(Oc2ccc(C[C@H](NC(=O)[C@@H]3Cc4cc5c(cc4CN3C(=O)NC3(C)CCC3)O[C@@H](c3ccc(OCc4ccc(Cl)c(Cl)c4)cc3)CO5)C(=O)O)cc2)c1C` [Example 351, (S)-2-{[(3S,8S)-3-[4-(3,4-Dichloro-benzyloxy)-phenyl]-7-(1-methyl-cyclobutylcarbamoyl)-2,3,6,7,8,9-hexahydro-[1,4]dioxino[2,3-g]isoquinoline-8-carbonyl]-amino}-3-[4-(2,3-dimethyl-pyridin-4-yloxy)-phenyl]-propionic acid] here?
**A.** 109 nM

**Q.** For `Cc1nccc(Oc2ccc(C[C@H](NC(=O)[C@@H]3Cc4cc5c(cc4CN3C(=O)NC3CCC(F)(F)CC3)O[C@@H](c3ccc(OCc4ccc(Cl)c(Cl)c4)cc3)CO5)C(=O)O)cc2)c1C` [Example 352, (S)-2-{[(3S,8S)-3-[4-(3,4-Dichloro-benzyloxy)-phenyl]-7-(4,4-difluoro-cyclohexylcarbamoyl)-2,3,6,7,8,9-hexahydro-[1,4]dioxino[2,3-g]isoquinoline-8-carbonyl]-amino}-3-[4-(2,3-dimethyl-pyridin-4-yloxy)-phenyl]-propionic acid], which EC50 is on record?
**A.** 338 nM

**Q.** `Cc1nc(C(=O)N2Cc3cc4c(cc3C[C@H]2C(=O)N[C@@H](Cc2ccc(-c3ccnc(C)c3C)cc2)C(=O)O)OC[C@H](c2ccc(OCc3c(Cl)cccc3Cl)cc2)O4)c(C)o1` [Example 355, (S)-2-{[(3S,8S)-3-[4-(2,6-Dichloro-benzyloxy)-phenyl]-7-(2,5-dimethyl-oxazole-4-carbonyl)-2,3,6,7,8,9-hexahydro-[1,4]dioxino[2,3-g]isoquinoline-8-carbonyl]-amino}-3-[4-(2,3-dimethyl-pyridin-4-yl)phenyl]-propionic acid] was tested. Which EC50 did it give?
**A.** 45 nM

**Q.** Which EC50 does the source give for `Cc1nc(C(=O)N2Cc3cc4c(cc3C[C@H]2C(=O)N[C@@H](Cc2ccc(-c3ccnc(C)c3C)cc2)C(=O)O)OC[C@H](c2ccc(OCc3cc(F)ccc3F)cc2)O4)c(C)o1` [Example 356, (S)-2-{[(3S,8S)-3-[4-(2,5-Difluoro-benzyloxy)-phenyl]-7-(2,5-dimethyl-oxazole-4-carbonyl)-2,3,6,7,8,9-hexahydro-[1,4]dioxino[2,3-g]isoquinoline-8-carbonyl]-amino}-3-[4-(2,3-dimethyl-pyridin-4-yl)-phenyl]-propionic acid] here?
**A.** 57 nM

**Q.** With `Cc1nc(C(=O)N2Cc3cc4c(cc3C[C@H]2C(=O)N[C@@H](Cc2ccc(-c3ccnc(C)c3C)cc2)C(=O)O)OC[C@H](c2ccc(OCc3cc(F)cc(F)c3)cc2)O4)c(C)o1` [Example 357, (S)-2-{[(3S,8S)-3-[4-(3,5-Difluoro-benzyloxy)-phenyl]-7-(2,5-dimethyl-oxazole-4-carbonyl)-2,3,6,7,8,9-hexahydro-[1,4]dioxino[2,3-g]isoquinoline-8-carbonyl]-amino}-3-[4-(2,3-dimethyl-pyridin-4-yl)-phenyl]propionic acid] as the compound, how does the EC50 read?
**A.** 19 nM

**Q.** With `Cc1nc(C(=O)N2Cc3cc4c(cc3C[C@H]2C(=O)N[C@@H](Cc2ccc(-c3ccnc(C)c3C)cc2)C(=O)O)OC[C@H](c2ccc(OCc3cccc(Cl)c3F)cc2)O4)c(C)o1` [Example 359, (S)-2-{[(3S,8S)-3-[4-(3-Chloro-2-fluoro-benzyloxy)-phenyl]-7-(2,5-dimethyl-oxazole-4-carbonyl)-2,3,6,7,8,9-hexahydro-[1,4]dioxino[2,3-g]isoquinoline-8-carbonyl]-amino}-3-[4-(2,3-dimethyl-pyridin-4-yl)phenyl]-propionic acid] as the compound, how does the EC50 read?
**A.** 117 nM

**Q.** How did the EC50 turn out when `Cc1nc(C(=O)N2Cc3cc4c(cc3C[C@H]2C(=O)N[C@@H](Cc2ccc(-c3ccnc(C)c3C)cc2)C(=O)O)OC[C@H](c2ccc(OCc3c(F)cccc3Cl)cc2)O4)c(C)o1` [Example 360, (S)-2-{[(3S,8S)-3-[4-(2-Chloro-6-fluoro-benzyloxy)-phenyl]-7-(2,5-dimethyl-oxazole-4-carbonyl)-2,3,6,7,8,9-hexahydro-[1,4]dioxino[2,3-g]isoquinoline-8-carbonyl]-amino}-3-[4-(2,3-dimethyl-pyridin-4-yl)phenyl]-propionic acid] was run?
**A.** 297 nM

**Q.** Which EC50 does the source give for `Cc1nc(C(=O)N2Cc3cc4c(cc3C[C@H]2C(=O)N[C@@H](Cc2ccc(-c3ccnc(C)c3C)cc2)C(=O)O)OC[C@H](c2ccc(OCc3cccc(Cl)c3Cl)cc2)O4)c(C)o1` [Example 361, (S)-2-{[(3S,8S)-3-[4-(2,3-Dichloro-benzyloxy)-phenyl]-7-(2,5-dimethyl-oxazole-4-carbonyl)-2,3,6,7,8,9-hexahydro-[1,4]dioxino[2,3-g]isoquinoline-8-carbonyl]-amino}-3-[4-(2,3-dimethyl-pyridin-4-yl)phenyl]-propionic acid] here?
**A.** 89 nM

**Q.** How did the EC50 turn out when `Cc1nc(C(=O)N2Cc3cc4c(cc3C[C@H]2C(=O)N[C@@H](Cc2ccc(-c3ccnc(C)c3C)cc2)C(=O)O)OC[C@H](c2ccc(OCc3cc(Cl)ccc3Cl)cc2)O4)c(C)o1` [Example 362, (S)-2-{[(3S,8S)-3-[4-(2,5-Dichloro-benzyloxy)-phenyl]-7-(2,5-dimethyl-oxazole-4-carbonyl)-2,3,6,7,8,9-hexahydro-[1,4]dioxino[2,3-g]isoquinoline-8-carbonyl]-amino}-3-[4-(2,3-dimethyl-pyridin-4-yl)-phenyl]-propionic acid] was run?
**A.** 12 nM
